For one series, the system named is Amaranthus rudis (AMATA). Nature of the series: Postemergence herbicide evaluation, percent reduction in plant size vs untreated control, 21 days after treatment. To be noted: Amaranthus tuberculatus, post-emergence, 504 h, AMATA, postemergence, read-out: Control/Injury; for pest or weed control at 140 g/ha: rate 140 g ae/ha; for pest or weed control at 280 g/ha: rate 280 g ae/ha. The format is in vivo, Amaranthus rudis (tall water hemp). In outline:
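Growth-reduction values are percent decrease in plant size relative to untreated plants, scored 21 days post-application. Amaranthus rudis (2-8 leaves) received postemergence sprays at 140 or 280 g ae/ha, 187 L/ha, in a mixed acetone/DMSO/water/isopropanol carrier with crop oil concentrate. Greenhouse conditions were 25-28° C, 50-60% RH; 3-4 randomized replicates.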

The test system of series [1] is Ambrosia artemisiifolia (AMBEL). The description is as above. The format is in vivo, Ambrosia artemisiifolia (common ragweed). The conditions noted are these: post-emergence, 504 h, AMBEL, postemergence, read-out: Control/Injury; for pest or weed control at 140 g/ha: rate 140 g ae/ha; for pest or weed control at 280 g/ha: rate 280 g ae/ha. In a few lines:
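Test compounds at 140 or 280 g ae/ha were applied by track sprayer (187 L/ha, spray solution containing acetone/DMSO, isopropanol, crop oil, surfactant) to 2–8 leaf plants, 3–4 replicates. Plants were kept in a greenhouse at 25–28 °C. Size reduction was scored against untreated controls at 21 days.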

Another series concerns Kochia scoparia (KCHSC). The series is described as above. The format is in vivo. The conditions noted are these: Bassia scoparia, post-emergence, 504 h, KCHSC, postemergence, read-out: Control/Injury; for pest or weed control at 140 g/ha: rate 140 g ae/ha; for pest or weed control at 280 g/ha: rate 280 g ae/ha. In a few lines: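 Values are percent reduction in plant size against an untreated control, measured 21 days after a single postemergence spray at 140 or 280 g ae/ha (187 L/ha, 276 kPa). Treatments used 3-4 randomized complete-block replicates on 2 to 8 leaf-stage plants kept in a 25-28 °C greenhouse, with compounds in acetone/DMSO-based solvent containing crop oil and surfactant.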

The subject of series [2] is Amaranthus palmeri (AMAPA). The series is described as above. To be noted: post-emergence, 504 h, R-AMAPA, postemergence, percent reduction vs untreated control, 21 days after treatment, read-out: Control/Injury; for pest or weed control at 140 g/ha: rate 140 g ae/ha; for pest or weed control at 280 g/ha: rate 280 g ae/ha. The class given is in vivo, Amaranthus palmeri (Palmer amaranth). In outline:
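Percent reduction in plant size relative to untreated plants, measured 21 days after track-sprayer application (187 L/ha) of 140 or 280 g ae/ha to Amaranthus palmeri at the 2 to 8 leaf stage. Randomized complete block, 3 or 4 replicates, greenhouse at 25 to 28° C; spray solution acetone/DMSO with isopropanol, water and crop oil concentrate.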

For series [3], the system named is Conyza canadensis (L.) (ERICA). The description is as above. The class given is in vivo, Conyza canadensis (L.) (Horseweed). The conditions noted are these: Erigeron canadensis, post-emergence, 504 h, ERICA, postemergence, percent reduction vs untreated control, 21 days after treatment, read-out: Control/Injury; for pest or weed control at 140 g/ha: rate 140 g ae/ha; for pest or weed control at 280 g/ha: rate 280 g ae/ha. In outline: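 Track-sprayer applications (187 L/ha, 276 kPa) of 140 or 280 g ae/ha, technical material dissolved in acetone/DMSO then diluted with crop oil and surfactant-containing solvent, to greenhouse Conyza canadensis at 2-8 leaves. After 21 days, size reduction relative to untreated plants was recorded; 3-4 randomized replicates.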

A further series deals with Glycine max. Nature of the series: whole plant or invertebrate. To be noted: for plant injury at 280 g/ha / plant injury at 140 g/ha: Glycine max, post-emergence, 504 h, read-out: Control/Injury. Here is the method: Plants were grown in a soil media composed of 90% by volume Promix BX (Premier Tech Horticulture, Quakertown, PA) and 10% Profile Greens Grade (Profile Products LLC, Buffalo Grove, IL). Promix BX contains approximately 83% Sphagnum Peat Moss, 13% Perlite, 5% vermiculite, and proprietary amounts of limestone, starter fertilizer, and wetting agent. Profile Greens Grade is a sand-sized granule formed from calcining illite and montmorillonite clay. Several seeds of each species were planted in 10 cm square pots and top watered twice daily. Plant material was propagated in a warm greenhouse with temperature ranging from 25 to 28° C. and 50 to 60% relative humidity at the Corteva Global Headquarters (Indianapolis, Indiana, USA). Natural light was supplemented with 1000-watt metal halide overhead lamps with an average illumination of 500 μE m^−2 s^−1 photosynthetic active radiation for 16 consecutive hours each day. Plants were top-watered prior to herbicide application and sub-watered after herbicide application.
Appropriate amounts of test materials were weighed out into glass vials in their technical form to deliver either 140 or 280 g acid equivalent (ae)/ha. The samples were dissolved in 3 ml of Solvent 1. Solvent 1 is 97% acetone and 3% dimethyl sulfoxide and serves as a general-purpose solvent (GPS) for dissolving technical materials. […] The samples were then diluted to their final concentration using 17 ml of solvent 2 for a total of 20 ml of spray solution. Solvent 2 contains 41.58% GPS, 45.53% water, 11.88% isopropyl alcohol, 0.99% crop oil concentrate and 0.02% Trition X-155 surfactant. All percentages are listed on a volume basis. Dicamba diglycolamine was applied as a formulated herbicide, Clarity™ and diluted with solvent 2 to compare all materials in the same spray solution.
Herbicide applications were made to 3 to 4 replicates of each plant species at the 2 to 8 leaf stage, depending on the species. Treatments were applied with a research track-sprayer (Generation III Research Sprayer manufactured by DeVries Manufacturing in Hollandale, MN, USA) calibrated to deliver a spray volume of 187 L/ha. The track-sprayer was fitted with an 8003E nozzle from Spray Systems Company (North Avenue and Schmale Road, P.O. Box 7900, Wheaton, IL 60187), and used a spray pressure of 276 kPa pressure and a speed of 3.1 km/h. The nozzle height was 46 cm above the plant canopy. The experimental design used for the trials was a randomized complete block with 3 or 4 replications per treatment. After application, plants were placed on carts according to the randomization and returned to the greenhouse. Plants were sub-watered after treatment with Indianapolis city water or fertilized three times a week with a commercial fertilizer solution (Jack's Professional 15-5-15 4 Ca 2 Mg fertilizer (manufactured by JR PETERS INC., 6656 Grant Way, Allentown, PA 18106; www.jrpeters.com). Percent visual control assessments were made on a scale of 0 to 100% (where 0 was no control and 100 was complete plant death) at 7, 14, and 21 days after treatment.
In conformity with the methods outlined in Example 49, the effect of representative experimental compounds on the growth of Glycine max was determined at 2 different levels (respectively, 140 and 280 g acid equivalent (ae)/ha) of the experimental actives tested. Plants were treated with one of the compounds, a control plant was not treated. Twenty-one days after treatment, the plants were measured. The data is present as a percent reduction in plant size relative to the untreated control.

As to `COc1c(Cl)ccc(Cl)c1C(=O)OCC[N+](C)(C)C` [Compound A-63], the pest or weed control at 140 g/ha amounted to 58% in the series on Amaranthus rudis (AMATA); 82% in series [1]; 92% in the series with Kochia scoparia (KCHSC); 73% in series [2]; 85% in series [3]. The pest or weed control at 280 g/ha with Amaranthus rudis (AMATA) is 77%; in series [1] it was 97%; in the series on Kochia scoparia (KCHSC) it was 97%; in series [2] it was 87%; in series [3] it was 92%. Also, the Control/Injury with Glycine max (GLXMA (soybean crop injury), rate 140 g ae/ha, postemergence, percent reduction vs untreated control, 21 days after treatment) is 2; in the series on Glycine max (GLXMA (soybean crop injury), rate 280 g ae/ha, postemergence, percent reduction vs untreated control, 21 days after treatment), 5.

Consider `COc1c(Cl)ccc(Cl)c1C(=O)Oc1cncnc1` [Compound A-66], for which the pest or weed control at 140 g/ha in the series on Amaranthus rudis (AMATA) came to 0%; in series [1] it was 15%; with Kochia scoparia (KCHSC) it was 0%; in series [2] it was 13%; in series [3], 0%. In addition, the pest or weed control at 280 g/ha with Amaranthus rudis (AMATA) is 2%; in series [1] it was 15%; in the series on Kochia scoparia (KCHSC), 0%; in series [2] it was 5%; in series [3] it was 2%. The compound further returned a Control/Injury in the series on Glycine max (in vivo) of 3.

In the case of `COc1c(Cl)ccc(Cl)c1C(=O)ON1C(=O)CCC1=O` [Compound A-73], the pest or weed control at 140 g/ha in the series on Amaranthus rudis (AMATA) is 50%; in series [1], 77%; in the series with Kochia scoparia (KCHSC), 82%; in series [2] it was 70%; in series [3], 85%. Besides, the pest or weed control at 280 g/ha in the series with Amaranthus rudis (AMATA) amounted to 88%; in series [1], 82%; in the series on Kochia scoparia (KCHSC), 88%; in series [2], 83%; in series [3] it was 80%. Further, the plant injury at 280 g/ha with Glycine max was 4%. Also, the Control/Injury in the series on Glycine max (in vivo) is given as 1.

For `COc1c(Cl)ccc(Cl)c1C(=O)ON1C(=O)c2ccccc2C1=O` [Compound A-74], the pest or weed control at 140 g/ha in the series on Amaranthus rudis (AMATA) is 70%; in series [1], 77%; with Kochia scoparia (KCHSC), 94%; in series [2], 68%; in series [3] it was 70%. Besides, the pest or weed control at 280 g/ha was 90% with Amaranthus rudis (AMATA); 88% in series [1]; 97% with Kochia scoparia (KCHSC); 85% in series [2]; 83% in series [3]. Besides, in the series with Glycine max, the plant injury at 140 g/ha worked out at 2%. Besides, in the series with Glycine max, the plant injury at 280 g/ha was determined as 3%.

As for `COc1c(Cl)ccc(Cl)c1C(=O)ON(C)C(=O)Nc1ccccc1` [Compound A-75], the pest or weed control at 140 g/ha with Amaranthus rudis (AMATA) worked out at 58%; in series [1], 82%; in the series with Kochia scoparia (KCHSC) it was 88%; in series [2] it was 73%; in series [3], 72%. Besides, the pest or weed control at 280 g/ha in the series with Amaranthus rudis (AMATA) came to 85%; in series [1], 88%; with Kochia scoparia (KCHSC), 97%; in series [2] it was 91%; in series [3], 73%. Moreover, the plant injury at 140 g/ha with Glycine max came to 3%. For the same compound, the plant injury at 280 g/ha in the series with Glycine max was 3%.

Take `COc1c(Cl)ccc(Cl)c1C(=O)Oc1ccc(Cl)cc1` [Compound A-76]: the pest or weed control at 140 g/ha in the series with Amaranthus rudis (AMATA) turned out to be 68%; in series [1] it was 80%; in the series on Kochia scoparia (KCHSC) it was 83%; in series [2] it was 55%; in series [3], 68%. In addition, the pest or weed control at 280 g/ha with Amaranthus rudis (AMATA) is 67%; in series [1], 83%; in the series with Kochia scoparia (KCHSC), 87%; in series [2], 65%; in series [3], 55%. Further, the plant injury at 140 g/ha with Glycine max was found to be 4%. For the same compound, in the series with Glycine max, the plant injury at 280 g/ha was found to be 4%.

Turning to `COc1c(Cl)ccc(Cl)c1C(=O)Nc1ccc(Cl)cc1` [Compound A-77], the pest or weed control at 140 g/ha with Amaranthus rudis (AMATA) is 83%; in series [1], 67%; in the series with Kochia scoparia (KCHSC) it was 96%; in series [2], 82%; in series [3] it was 40%. For the same compound, the pest or weed control at 280 g/ha amounted to 85% with Amaranthus rudis (AMATA); 77% in series [1]; 93% with Kochia scoparia (KCHSC); 78% in series [2]; 68% in series [3]. In the series on Glycine max, the plant injury at 140 g/ha is 8%. In addition, the plant injury at 280 g/ha in the series on Glycine max amounted to 8%.

The record behind these values is patent US20240122179A1, “AUXINIC HERBICIDES AND METHODS OF USE THEREOF” (CORTEVA AGRISCIENCE LLC, priority 2021, published 2024).
